Experiments:
H1975 cells [1] = assay: Spheroid formation experiment, H1975 cells; type: cell-based
Source text: The density of H1975 was 500 cells per well and the density of H1650 was 1000 cells per well in an ultra-low adhesion round bottom 96 well plate (Corning, #7007).

H1975 cells [2] = assay: Colony formation (cloning experiment), H1975 cells; type: cell-based; conditions: 0.125 μM, 10 days
Method: (§1) Cells were seeded at a density of 1×10^3 per well in 6-well plates and cultured for 24 h. The cells were treated with medicament or DMSO for 10 days, after which the cells were washed once with 1×PBS, fixed with 4% paraformaldehyde for 20 min, and stained with 0.1% crystal violet for 15 min. The stained cells in each well were imaged and the number of colonies in each well was quantified using ImageJ software.

MET = assay: Western blot, MET protein levels in drug-resistant NSCLC cells; type: cell-based; conditions: 2 μM
Method: Cells were washed once with PBS and frozen in RIPA lysis buffer containing protease and phosphatase inhibitors (Sigma-Aldrich) for 30 min. After sonication and centrifugation, the total protein concentration was determined by protein assay using Bio-Rad concentrated dye reagent (Bio-Rad). Equal amounts of protein ([…]) from each sample were separated by SDS-PAGE and electrotransferred to nitrocellulose membranes (GE Healthcare). Detection was performed on the membrane with a 1:1000 dilution of specific primary antibody followed by incubation with a 1:2000 dilution of the HRP conjugated secondary antibody. Finally, immunoreactivity is detected with a chemiluminescent substrate (Clarity Western ECL substrate; Bio-Rad). […] Aurora A (#ab13824) and PLK1 (#ab189139) antibodies were from Abcam.

[3] = test system: drug-resistant NSCLC cells (A549, H358, H1975, H1650); assay: MTT assay, summary over all four cell lines; type: cell-based
Method: Cells were seeded at a density of 3×10^3 per well in 96-well plates, allowed to attach overnight, and treated with various concentrations of agent. After 72 h of treatment, 10 μL of MTT solution (5 mg/mL) was added to each well and cultured in the plate for 4 h. The crystallized formazan was dissolved in 100 μL of 10% (w/v) SDS and 0.01 mol/L HCl solution for 24 h, and then the value was read by spectrophotometry at 595 nm using a microplate reader.

A549 cells = assay: Transwell cell migration assay; type: cell-based
Method: Cell migration and invasion assays were performed in a transwell chamber (Corning, #3422) with a pore size of 8 μm. Cells were treated with different concentrations of ATA and Erlotinib for 48 h, then harvested and resuspended in a serum-free medium. Cells (1×10^4) were added to the upper side of the transwell chamber and fresh medium containing 10% FBS was added to the lower side. Cells were allowed to migrate from the upper side to the lower side of the chamber at 37° C. for 24 h. Membranes from the cell chamber were fixed with 4% paraformaldehyde for 20 min. The cells remaining on the upper side of the membrane were gently removed with a cotton swab and stained with 1% crystal violet for 20 min to stain the cells migrating to the other side of the transwell chamber. The membrane was then cut and fixed on a glass slide. The migrated cells on each slide were imaged with a Leica M165-FC microscope. For the transwell invasion assay, a Matrigel solution (Corning, #356230) was diluted to one-thirtieth with serum-free medium and applied to the upper side of the precoated chamber for 2 h, after the Matrigel had solidified, the cells were added to the upper side of the transwell chamber. The following procedure is identical to the migration assay. Migrated and invaded cells were quantified using ImageJ software.

H358 cells = assay: Colony formation (cloning experiment), H358 cells; type: cell-based; conditions: 10 days
Method: as §1

A549 and H1650 cells = assay: Cell cycle analysis (PI staining, flow cytometer); type: cell-based; conditions: 1 or 2 μM, 48 h
Method: Cell cycle analysis was performed using standard flow cytometer protocols. Briefly, after ATA treatment, cells were harvested, washed with 1×PBS, and then fixed with 70% pre-chilled ethanol at 4° C. for 30 min. Fixed cells were washed twice with 1×PBS, resuspended in 0.5 mL of 1×PBS containing 50 μg/mL propidium iodide (PI) and 100 μg/mL RNase A (ribonuclease A) for 30 min at 37° C. in the dark. The cell cycle was then analyzed on a BD Accuri C6 flow cytometer (BD Biosciences, CA). Data from the flow cytometer were analyzed using FlowJo software (Tree Star).

[4] = test system: all four drug-resistant cell lines (A549, H358, H1975, H1650); assay: Colony formation, all four drug-resistant cell lines; type: cell-based; conditions: 1 μM, 10 days
Method: as §1

[5] = Body weight, deaths and toxicity in the xenograft study; conditions: 25 mg/kg intraperitoneally every 3 days for 31 days
Method: Cell line xenograft experiments were performed in 6-week-old female nude mice, 4×10^6 A549 cells were mixed 1:1 with matrigel-basement membrane matrix (Corning) and injected subcutaneously into nude mice. Tumors were allowed to grow to around […] and mice were randomly selected to receive treatment with ATA (25 mg/kg) or Erlotinib (25 mg/kg) intraperitoneally every 3 days for 31 days. ATA was formulated with 25% ethanol, 60% PEG300 (Sigma-Aldrich), and 15% Tween 80 (Sigma-Aldrich). Erlotinib was formulated in 5% DMSO, 30% PEG300, 5% Tween 80 and 60% H2O. Mouse body weight and tumor volume were measured every 3 days by a scale and caliper. Tumor volume (mm^3) was calculated using the formula. π/6×length (mm)×[width (mm)]^2. At least 6 mice in the control and treatment groups were evaluated during the study. All mice were sacrificed after 31 days of drug treatment, tumors were collected, and tumor weights were recorded. All animal studies were conducted in accordance with the requirements of the Animal Research Ethics Committee of Macao University and in compliance with all relevant ethical requirements.
To determine if ATA could also produce the same effect in vivo, this example injected A549 cells subcutaneously into nude mice to form tumor xenografts. Mice were randomly assigned to three groups. When the size of each tumor increased to a volume of approximately 100 mm^3, mice were injected intraperitoneally with vehicle control, ATA (25 mg/kg), or Erlotinib (25 mg/kg) every 3 days for 31 days. The tumor size and body weight of each mouse were measured every 3 days until the end of the animal experiment on day 31.

[6] = test system: protein levels in A549-derived xenograft tumor tissue; assay: Western blot of A549-derived xenograft tumor tissue; type: in vivo, nude mice; conditions: after ATA treatment, 25 mg/kg
Method: Cells were washed once with PBS and frozen in RIPA lysis buffer containing protease and phosphatase inhibitors (Sigma-Aldrich) for 30 min. After sonication and centrifugation, the total protein concentration was determined by protein assay using Bio-Rad concentrated dye reagent (Bio-Rad). Equal amounts of protein (25-50 mg) from each sample were separated by SDS-PAGE and electrotransferred to nitrocellulose membranes (GE Healthcare). Detection was performed on the membrane with a 1:1000 dilution of specific primary antibody followed by incubation with a 1:2000 dilution of the HRP conjugated secondary antibody. Finally, immunoreactivity is detected with a chemiluminescent substrate (Clarity Western ECL substrate; Bio-Rad). EGFR (#4267S), MET (#8198S), p-Akt (#9271L), akt (#9272S), p-mTOR (#5536S), mTOR (#2983S), p-p70S6K (#9234S), p70S6K (#2708S), p-S6RP (#4857S), S6RP (#2217S), p-4E-BP1 (#9455S) antibodies. 4E-BP1 (#9644S), p53 (#2527S), p21 waf1/Cip1 (#2947S), survivin (#2808S), cyclin B1 (#12231S), cyclin D3 (#2936S) and GAPDH (#2118S) were purchased from Cell Signaling Technology. Aurora A (#ab13824) and PLK1 (#ab189139) antibodies were from Abcam.
EGFR, MET, p-p70S6K, p70S6K, p-S6RP, S6RP, p21, AURKA, PLK1, and survivin protein levels were detected by Western blot analysis. Immunoblot samples were from two independent tumors per group.

CC(=O)Oc1c(OC(C)=O)c2c(C)coc2c2ccc3c(c12)CCCC3(C)C [ATA, acetyltanshinone IIA]
spheroid growth / sphere size (H1975 cells [1]; 2 μM, 0 to 8 days): completely inhibited | spheroid formation (H1975 cells [1]; both 1 and 2 μM): strongly inhibited | inhibition of colony formation (H1975 cells [2]): almost completely inhibited | decrease of MET protein levels (MET; A549 cells, 72 or 96 h): ≤ 90% | reduction of MET protein levels (MET; all four cell lines, 48 h): 70-90% | IC50 ([3]; A549, H358, H1975, H1650, MTT, 72 h, read-out: IC50 values, range over the four cell lines): 1300 to 1800 nM | IC50 of ATA lower than that of Erlotinib ([3]; four cell lines): 6-17 fold | effect on cell migration (A549 cells; 0.5 μM): significant inhibitory effect | reduction of migration ability (A549 cells; 1 μM): 80% | inhibition of colony formation (H358 cells; 0.125 μM): almost completely inhibited | colony formation inhibition compared with Afatinib (H358 cells; 1 μM): significantly higher colony formation inhibition than Afatinib | proportion of cells in the G1 phase (A549 and H1650 cells): increased | proportion of cells in the S phase (A549 and H1650 cells): decreased | inhibition of colony formation compared with Erlotinib and Osimertinib [4]: much more effectively than Erlotinib and Osimertinib | deaths during the treatment period [5]: no mice died | toxicity in nude mice [5]: no significant toxicity | weight of nude mice compared between groups [5]: no difference | increase of p21 protein levels in xenograft tumor tissue [6]: more than 2 fold | protein levels of EGFR, MET, p-p70S6K, p70S6K, p-S6RP, AURKA, PLK1 and survivin in xenograft tumor tissue [6]: greatly reduced
